Experiments:
sciatic nerve = assay: Sciatic nerve blockade after injection at the sciatic nerve notch in rats; format: in vivo; set-up: AUC of time-% PE curve, sciatic nerve blockade of motor function / AUC of time-% PE curve, sciatic nerve blockade of proprioception / AUC of time-% PE curve, sciatic nerve blockade of nociceptive reaction: unit not given beside the values; details: rats
Method: (§1) Male Sprague-Dawley rats (weighing about 300 to 350 g); for each dose of each drug, n=6.
In brief, the rats were slightly anesthetized by inhalation of a low concentration of sevoflurane. Then, 200 μL of tested drugs were injected at the sciatic nerve notch at the left hind limb of the rat using a 27-gauge needle connected to a tuberculin syringe (Becton Dickinson, USA, model BND309623-BX). Thereafter, development of sciatic nerve blockade was observed from the paralysis of the left hind limb of the rat. The right hind limb served as a control during the subsequent functional assay
For proprioception, the front half of the rat body and the right hind limb were off the ground at the same time so that the rat was standing on the left hind limb during the measurement.
The differences resided in that: The sciatic nerve notch injections of ED25, ED50 and ED75 were conducted based on the method described in the preceding section “A. Drug injection” of this example. Evaluations of motor function, proprioception and nociceptive reaction were conducted based on the method described in section “B. Neurobehavioral evaluations” of this example.
The differences resided in that: Before the statistical analysis, Shapiro-Wilk test was used to evaluate whether the data were, theoretically, normally distributed.

Male Sprague-Dawley rats [1] = assay: Infiltrative cutaneous anesthesia (inhibition of cutaneous trunci muscle reflex, CTMR) after subcutaneous injection in rats; format: in vivo
Method: Male Sprague-Dawley rats (weighing about 200 to 250 g); for each dose of each drug, n=8.
In brief, hairs on the dorsal surface (about 10×10 cm^2) of the thoracolumbar region of the rat were shaved, and the shaved surface was sterilized with iodine for preparation. To reduce the number of animals used, the back of the rat was further divided into left and right parts. One drug was injected first at the right part. After a washout period of one week, another drug was injected at the left part.
0.6 mL of drug was injected subcutaneously under the dorsal surface of the thoracolumbar region of the rat using a 30-gauge needle attached to a syringe (Becton Drive, Franklin Lakes, USA). The subcutaneous injection would result in a circular elevation (i.e., a wheal) of the skin, about 2 cm in diameter. The elevation was marked with ink within 1 minute after injection.
CTMR refers to the reflex movement of the skin of the back caused by twitching of the lateral thoracispinal muscle in response to local dorsal cutaneous stimulation. Essentially, a von Frey filament (No.15; Somedic Sales AB, Sweden) to which a cut end of an 18-gauge needle was affixed was used to produce a standard nociceptive stimulus (strength: 19 g). Six pinpricks (at a frequency of 0.5-1 Hz) were applied to a single marked wheal during each test. […] For example, absence of any response to all of the 6 pinpricks was defined as a complete nociceptive block (i.e., 100% MPE).
The difference resided in that subcutaneous injections of ED25, ED50 and ED75 of the drugs were performed based on the method described in the section “A. Drug injection” of this example, and evaluation of the infiltrative cutaneous anesthetic effect was performed based on the method described in the section “B. Neurobehavioral evaluation” of this example.

rats = assay: Systemic safety indices: mortality 24 hours after intraperitoneal injection in rats; details: intraperitoneal injection, rats, mortality after 24 hours
Method: Essentially, each drug was injected intraperitoneally into the rats (n=8). The number of dead rats was observed after 24 hours, and the rate of mortality (%) was calculated. Thereafter, the doses of each drug and the relative mortality were plotted to obtain dose-mortality curves of the drugs. […] The safety index (LD50/ED50) of each drug was calculated using the LD50 thus obtained and the ED50 obtained in the section “C. Potency evaluation” of this example.

Male Sprague-Dawley rats [2] = assay: Spinal anesthetic effect (spinal blockade) after intrathecal injection in rats; format: in vivo; set-up: AUC of time-% PE curve, spinal blockade of motor function / AUC of time-% PE curve, spinal blockade of proprioception / AUC of time-% PE curve, spinal blockade of nociceptive reaction: unit not given beside the values
Method: as §1
In brief, for preparation, the hairs on the back of each rat were shaved, and the shaved back was sterilized with iodine.
After three minutes, 50 μL of each of the tested drugs was injected via a 27-gauge needle attached to a 100-μL syringe (Hamilton, Reno, Nev.) into the intrathecal space between the fourth and fifth lumbar vertebrae. The development of spinal blockade was observed from the paralysis of the hind limbs of the rats.
The magnitude of nerve block (including blocking of motor function, proprioception, and nociceptive reaction) was expressed as the percentage of possible effect (hereinafter referred to as % PE), and the maximal value of % PE was expressed as the percentage of maximal possible effect (hereinafter referred to as % MPE).
Motor function was evaluated by measuring the extensor postural thrust of the right hind limbs of the rats using a digital platform balance (Mettler Toledo, Switzerland, model PB1502-S). To test the extensor postural thrust, the rat was held upright with the hind limb extended, so that the body weight of the rat was supported by the distal metatarsus and toes. The extensor postural thrust could be measured as the force of the right hind limb of the rat thrusting the platform balance.
A reduction in the force, resulting in extensor muscle tone, was considered as a motor deficit. A force less than 20 g (i.e., a weight of the “flaccid limb”) was considered absence of an extensor postural thrust or 100% motor block or 100% MPE.
Proprioception was evaluated based on resting posture and postural reactions (including tactile placing and hopping). First, the front half of the rat body and one of the hind limbs were lifted off the ground at the same time so that the rat was standing on one hind limb. Then, the rat was moved laterally, which normally evoked a prompt hopping response of the weight-bearing hind limb of the rat in the direction of movement so as to avoid falling. A predominantly proprioceptive block caused a delayed hopping followed by greater lateral hops. […] Functional deficits were classified into four grades: 3 (normal or 0% MPE), 2 (slightly impaired), 1 (severely impaired), and 0 (completely impaired or 100% MPE).
Nociceptive reaction was evaluated by the withdrawal reflex or vocalization elicited by the pinch of a skin fold over the back at 1 cm near the proximal part of the tail, the lateral metatarsus of the bilateral hind limbs, and the dorsal part of the mid-tail. At each testing time, only one pinch was given to each of the abovementioned four testing sites, and the time interval between stimulations at different sites was around 2 seconds. Nociceptive reactions were classified into five grades: 4 (normal or 0% MPE), 3 (25% MPE), 2 (50% MPE), 1 (75% MPE), and 0 (absent or 100% MPE).
The potency of each drug on spinal blockades was compared using ED50.
Duration was defined as the interval from injection of the tested drugs to complete recovery. The ED25, ED50 and ED75 obtained according to the SAS NLIN analysis in the preceding section “C. Potency evaluation” were used in this experiment.
Regarding the method of evaluating the effect of co-administration, dextromethorphan hydrobromide monohydrate was used as an example.
After the tests, the time of measurement of each drug and its corresponding % PE were plotted to obtain the time-% PE curves of each drug. The area under the curve (AUC) of time-% PE was calculated using the trapezoidal rule, and was used to evaluate the effect of the co-administration of the drugs.
Statistical software, SPSS for Windows® (version 10.0.7) was used. Data were represented as mean±SEM.

[3] = 2ED50 when administered independently, ED50 of each drug when co-administered, mean ± SEM
[4] = infiltrative cutaneous anesthesia, rats, 2ED50 when administered independently, ED50 for co-administration, mean ± SEM
[5] = infiltrative cutaneous anesthesia, subcutaneous injection, rats
[6] = subcutaneous dose of ED75, rats, mean±SEM
[7] = intrathecal, rats, 2 ED50 when administered independently, ED50 of each drug when co-administered, mean ± SEM
[8] = spinal blockade, mean of motor function, proprioception and nociceptive reaction, intrathecal, rats

Dextrorphan tartrate
effect of co-administration with lidocaine hydrochloride on sciatic nerve blockades (sciatic nerve; ED50 of each drug): additive effect
AUC of time-% PE curve, sciatic nerve blockade of motor function (sciatic nerve; [3]): 7077 ± 429
AUC of time-% PE curve, sciatic nerve blockade of nociceptive reaction (sciatic nerve; [3]): 8786 ± 915
AUC of time-% PE curve, sciatic nerve blockade of proprioception (sciatic nerve; [3]): 7357 ± 558
duration of sciatic nerve blockade compared with lidocaine hydrochloride (sciatic nerve; same effective doses (ED25, ED50 or ED75)): longer reaction duration
Motor function ED50 (95% CI) (sciatic nerve; sciatic nerve blockade of motor function): 14.66 (13.78–15.58) mg/kg
Nociceptive reaction ED50 (95% CI) (sciatic nerve; sciatic nerve blockade of nociceptive reaction): 13.38 (12.37–14.47) mg/kg
Proprioception ED50 (95% CI) (sciatic nerve; sciatic nerve blockade of proprioception): 14.52 (13.40–15.73) mg/kg
Mean ED50 (sciatic nerve; sciatic nerve blockade, mean of motor function, proprioception and nociceptive reaction): 14.19 mg/kg
% MPE (Male Sprague-Dawley rats [1]; [4]): 73 ± 11 % MPE
AUC (% min.) (Male Sprague-Dawley rats [1]; [4]): 3200 ± 690 % min.
Duration (Male Sprague-Dawley rats [1]; [4]): 63 ± 7 min
ED25 (Male Sprague-Dawley rats [1]; [5]): 4.03 mg/kg
ED50 (95% CI) (Male Sprague-Dawley rats [1]; [5]): 5.66 (5.17–6.21) mg/kg
ED75 (Male Sprague-Dawley rats [1]; [5]): 7.97 mg/kg
duration of cutaneous anesthesia compared with lidocaine hydrochloride (Male Sprague-Dawley rats [1]; same effective doses (ED25, ED50 or ED75), rats): longer duration
% MPE of cutaneous nociceptive block (Male Sprague-Dawley rats [1]; [6]): 73±7 % MPE
duration of cutaneous nociceptive block (Male Sprague-Dawley rats [1]; [6]): ~48 ± 3 min
effect of co-administration with lidocaine hydrochloride on cutaneous nociceptive blockade (Male Sprague-Dawley rats [1]; subcutaneous, rats, ED50 of each drug): additive effect
LD50 (95% CI) (rats): 307 (257–369) mg/kg
% MPE of spinal blockades of motor function, proprioception and nociceptive reaction (range over the three functions) (Male Sprague-Dawley rats [2]; intrathecal dose of ED75, rats): 62-77 % MPE
duration of spinal blockades of motor function, proprioception and nociceptive reaction (range over the three functions) (Male Sprague-Dawley rats [2]; intrathecal dose of ED75, rats): 30 to 65 min
effect of co-administration with bupivacaine hydrochloride on spinal blockade (Male Sprague-Dawley rats [2]; intrathecal, rats, ED50 of each drug): synergistic effect
AUC of time-% PE curve, spinal blockade of motor function (Male Sprague-Dawley rats [2]; [7]): 1447 ± 163
AUC of time-% PE curve, spinal blockade of nociceptive reaction (Male Sprague-Dawley rats [2]; [7]): 4332 ± 382
Motor function ED50 (95% CI) (Male Sprague-Dawley rats [2]; spinal blockade of motor function, intrathecal injection, rats): 0.40 (0.39–0.42) mg
Nociceptive reaction ED50 (95% CI) (Male Sprague-Dawley rats [2]; spinal blockade of nociceptive reaction, intrathecal injection, rats): 0.28 (0.26–0.30) mg
Proprioception ED50 (95% CI) (Male Sprague-Dawley rats [2]; spinal blockade of proprioception, intrathecal injection, rats): 0.32 (0.30–0.35) mg
Mean value ED25 (Male Sprague-Dawley rats [2]; [8]): 0.25 mg
Mean value ED50 (Male Sprague-Dawley rats [2]; [8]): 0.33 mg
Mean value ED75 (Male Sprague-Dawley rats [2]; [8]): 0.45 mg
